From article PMC9170688, “Gametocyte-specific and all-blood-stage transmission-blocking chemotypes discovered from high throughput screening on Plasmodium falciparum gametocytes” (Communications Biology, 2022) come the findings set out here.

Where “and” joins values, the source holds several entries; their conditions need not be identical. Equal entries are not always repeated.

Assay [1] relates to P. falciparum strain NF54-hsp70-luc stage V gametocytes fed to Anopheles stephensi mosquitoes. As to the kind of experiment: whole plant or invertebrate. In kind it is in vivo, Plasmodium falciparum. The conditions noted are these: for transmission blocking in SMFA: 24 h treatment; for luminescence signal of individual mosquitoes (SMFA, Fig. 5): one value per mosquito. As to the method: The above selected 30 compounds were subjected to a phenotypic male gamete exflagellation assay. This assay measures the viability of male gametocytes by quantitating the final step of maturation into motile microgametes in vitro[24]. This process naturally occurs in the mosquito gut within minutes from the blood meal. The acquisition of time lapse videos of gamete motility in bright field microscopy and the subsequent analysis to count exflagellation centres were performed in an automated HTS format in 384-well plates. The compounds were tested in two independent biological replicates at the concentration of 1 µM. […] The standard membrane feeding assay (SMFA) is used to measure the parasite transmission through mosquito. In this assay, mature stage V gametocytes of the P. falciparum strain NF54-hsp70-luc were treated with 1 and 10 µM of the nine selected compounds for 24 h, added with human red blood cells and serum to achieve a haematocrit of 50% and then fed to mosquitoes. Luminescence was analyzed in the mosquito salivary glands 8 days post-feeding.
SMFA was performed commercially by TropiQ Health Sciences (Nijmegen, The Netherlands). Test samples were diluted in DMSO and then in RPMI medium (Gibco, 51800043) to achieve a final DMSO concentration of 0.1%. Diluted samples were combined with stage V gametocytes from P. falciparum strain NF54-hsp70-luc and incubated for 24 h. Subsequently, human red blood cells and human serum with the sample were added to achieve a haematocrit of 50%. The blood meal was fed to two-day old Anopheles stephensi mosquitoes that were starved the night prior to the blood meal. […] Mosquito infection was analyzed 8 days post-feeding by luminescence measurements of whole mosquitoes as described previously. For each feeder, luminescence intensity was analyzed in 15–24 mosquitoes per feeder (N = 1, n = 15–24). Luminescence background levels were determined from 15–24 uninfected mosquitoes. Controls: vehicle (0.1% DMSO) in duplicate.

Assay [2] concerns P. falciparum NF54 male gametocytes (stage V). The assay can be described thus: Male gamete exflagellation assay. It is filed as cell-based, Plasmodium falciparum. The conditions noted are these: for Inhibition of male exflagellation at 1 µM: 48 h. As to the method: The above selected 30 compounds were subjected to a phenotypic male gamete exflagellation assay. This assay measures the viability of male gametocytes by quantitating the final step of maturation into motile microgametes in vitro[24]. This process naturally occurs in the mosquito gut within minutes from the blood meal. The acquisition of time lapse videos of gamete motility in bright field microscopy and the subsequent analysis to count exflagellation centres were performed in an automated HTS format in 384-well plates. The compounds were tested in two independent biological replicates at the concentration of 1 µM. […] The results of this study led to the identification of 16 compounds with anti-exflagellation activity (Fig. 4). […] The standard membrane feeding assay (SMFA) is used to measure the parasite transmission through mosquito. In this assay, mature stage V gametocytes of the P. falciparum strain NF54-hsp70-luc were treated with 1 and 10 µM of the nine selected compounds for 24 h, added with human red blood cells and serum to achieve a haematocrit of 50% and then fed to mosquitoes. Luminescence was analyzed in […] 8 days post-feeding.
Asexual parasites of the NF54 line, kindly obtained from Elena Levashina’s laboratory (Max Plank Institute for Infection Biology, Berlin, Germany), were seeded at 1% total parasitemia and grown for 16 days changing medium every day until development of stage V gametocytes (about 1–2% of stage V gametocytemia). 100 µl of gametocyte culture was seeded in each well of a 96 well-plate and 100 µl of 2× concentration of compounds or DMSO as control were added to each well to achieve the desired final concentration. Assay plates were incubated for 48 h at 37 °C in 4% CO2, 3% O2, and 93% N2 modified atmosphere. After the incubation period, 100 µl of medium were removed from each well and the other 100 µl were transferred to a black imaging 96 well plate (ibidi) containing 100 µl of complete medium supplemented with 40 µM of xanthurenic acid. After 15 min, exflagellation events were captured by three ten-second videos each well with an Olympus IX83 inverted microscope with a UPLSAPO 10× N.A. 0.75 objective (Olympus, Japan), equipped with a Hamamatsu ORCA-Flash 4.0 V3 camera. Each video was analyzed using the Icy bio-image analysis software (http://icy.bioimageanalysis.org/) to count the number of exflagellation events.

Assay [3] concerns P. falciparum NF54 pfs16-GFP-PyLUC gametocytes. The assay can be described thus: P. falciparum gametocyte luminescence assay (PfLuc), line NF54 pfs16-GFP-PyLUC. In kind it is cell-based, Plasmodium falciparum. The settings on record: gametocytes, line NF54 pfs16; read-out: Pf Gametocytes NF54 pfs16 (IC50 nM). As to the method: (§1) To exclude false positive compounds that may interfere with the click beetle CBG99 luciferase signal and to confirm the activity on gametocytes produced by other P. falciparum lines, we tested the above 638 compounds at a single concentration of 10 µM on gametocytes from two NF54 strain derived lines: pfs16-GFP-PyLUC (Photinus pyralis luciferase under the same pfs16 promoter)[14],[16],[27] and hsp86-PpyRE13 that was generated for this work to express the mutated Photinus pyralis PpyRE13 luciferase in gametocytes under the promoter of the pfhsp86 gene.
(§2) With the selected 84 compounds, the subsequent step aimed at determining the gametocyte inhibition potency and the parasite stage selectivity between the gametocytes and the asexual stages in the NF54 hsp86-PpyRE13. […] Similar data were obtained considering the gametocyte IC50 values measured in the NF54 pfs16-GFP-PyLUC strain (see Supplementary Data 2).
(§3) Parasite gametocyte luminescence assays were performed in 384-well plates (Thermo, 4332, USA) by infected red blood cells seeded at 40 µL/well at a haematocrit of 0.625% for the strain 3D7elo1-pfs16-CBG99, 1.875% for both strains NF54 hsp86-PpyRE13 and NF54 pfs16-GFP-PyLUC. Assay were performed in the medium: 10.44 g/L RPMI 1640 Medium (Gibco, 51800043), 5.95 g/L HEPES (Sigma, H4034), 50 mg/L Hypoxantine (Sigma, 56700), 10% heat inactivated human serum, 10 ml of Neomycin solution (Sigma, N1142) and 2.1 g/L NaHCO3 (Sigma, 144-55-8). Compounds or DMSO as control were pre dispensed on plates, from 10 mM DMSO stock solutions, via an acoustic droplet ejection device (ATS-100, EDC Biosystems) to achieve the final desired concentration. Assay plates were incubated for 48 h at 37 °C in 4% CO2, 3% O2, and 93% N2 modified atmosphere. After incubation, 20 µL/well of a solution of luciferin (Regis, 1-360242-200) potassium/sodium salt (300 µg/ml) are added to the assay plates and read at suitable luminescence detection after 1 min incubation at room temperature. The whole HTS was performed in 7 rounds of 30–80 plates each in two months’ time.

The subject of assay [4] is P. falciparum NF54 hsp86-PpyRE13 asexual stages. The assay can be described thus: P. falciparum asexual stage assay (pLDH). In kind it is cell-based, Plasmodium falciparum. The conditions noted are these: asexual stages, line NF54 Hsp86 PpYRE13; read-out: NF54 Hsp86 PpYRE13 (IC50 nM). As to the method: as §2
Parasite proliferation assays were performed in 384-well plates (Thermo, 4332, USA) with a starting parasitemia of 0.25% at a haematocrit of 2% by quantification of parasite lactate dehydrogenase (pLDH). Compounds or DMSO as control were pre dispensed on plates, from 10 mM DMSO stock solutions, via an acoustic droplet ejection device (ATS-100, EDC Biosystems) to achieve de final desired concentration. Assay plates were incubated for 72 h at 37 °C in 4% CO2, 3% O2, and 93% N2 modified atmosphere. After the incubation period, plates are frozen at −80 °C for two h and then thawed at room temperature for 2 h. Then, 50 µL of the developer solution (70 mM Tris-HCl pH 8.0, 0.5% Tween-20, 100 mM Lithium L-Lactate, 125 µM nitro blue tetrazolium, 2 U/ml diaphorase and 100 µM 3-Acetylpyridine Adenine Dinucleotide) are added to each well and let to react for 10 min. Absorbance was then read at 650 nm by a suitable spectrophotometer.

The subject of a further assay is HeLa cells. As to the kind of experiment: HeLa cell proliferation assay (CellTiter Glo). In kind it is cell-based, human. As to the method:
In addition, we tested the 84 compounds in a dose-response fashion on HeLa cells to quantitatively monitor their cytotoxicity potential.
HeLa cells (CCL-2, ATCC, USA) were cultured in DMEM without phenol red (Thermo, 11880, USA) + 10% FBS + 1X PenStrep + 1X Gln. They were plated in a 384-well plate (Thermo, 4334-11, USA) to a density of 2000 cells per well and let recover for 4 h at 37 °C, 5% CO2 in a humidified atmosphere. After the recovery, compounds were transferred to assay plates as per compound preparation method. Assay plates were then incubated at 37 °C, 5% CO2 in a humidified atmosphere for 72 h. Cell viability was measured by the CellTiTer Glo (Promega, G8080, USA) as per manufacturer instruction.

In assay [5] the test system is P. falciparum NF54 hsp86-PpyRE13 gametocytes. The assay can be described thus: P. falciparum gametocyte luminescence assay (PfLuc), line NF54 hsp86-PpyRE13. The conditions noted are these: gametocytes, line NF54 HSP86; read-out: Pf Gametocytes NF54 HSP86 (IC50 nM). It is filed as cell-based, Plasmodium falciparum. As to the method: as §1, §2, §3
Assay [6] relates to P. falciparum NF54 male gametocytes (stage V). The assay can be described thus: Male gamete exflagellation assay. In kind it is cell-based, Plasmodium falciparum. The settings on record: 48 h.
For assay [7], the system named is P. falciparum 3D7elo1-pfs16-CBG99 gametocytes. The assay can be described thus: P. falciparum gametocyte luminescence assay (PfLuc), primary HTS line 3D7elo1-pfs16-CBG99. It is filed as cell-based, Plasmodium falciparum. The settings on record: 10 µM MB, Rep1-Rep2.
Excerpt: In this line, the CBG99 luciferase-coding region (from the click beetle Pyrophorus plagiophthalamus) is integrated into the parasite genome and expressed under the control of the pfs16 gametocyte-specific promoter.
Obtaining an accurate gametocyte synchronization with minimal parasite handling is of paramount importance to establish a robust and reliable HTS assay. To this aim, the timing of addition of N-acetyl glucosamine (NAG), used to clear residual asexual stages after appearance of stage I gametocytes, was optimized. […] Using these cultures, different haematocrit percentages (0.625, 1.25 and 2.5%) and two incubation times (48- and 72 h) were tested to identify the optimal luciferase readout.
A collection of 119.059 compounds of the CNCCS library was tested on gametocytes of the 3D7elo1-pfs16-CBG99 strain at 10 µM using the protocol described above. […]
as §3

As to `CS(=O)(=O)c1ccc(-c2cnc(N)c(-c3ccc(C(F)(F)F)nc3)c2)cc1` [MMV0048, reference compound], the “transmission blocking in SMFA” value in assay [1] (1 µM) and in assay [1] (10 µM) was “abolished the parasite transmission” each time.

In the case of `CS(=O)(=O)c1ccc(-c2cnc(N)c(-c3ccc(C(F)(F)F)nc3)c2)cc1` [MMV-048], the “luminescence signal of individual mosquitoes (SMFA, Fig. 5)” value was 6 and 9 and 5 and 28 and 32 and 4 and 3 and 8 and 58 and 2 and 20 and 83 in assay [1] (compound at 1 µM); 6 and 8 and 5 and 3 and 7 in assay [1] (compound at 10 µM).

On to `O=S(=O)(NCC1(O)CCOc2ccccc21)c1ccc(Br)s1` (stereo not drawn) [Compound 84, reference compound], for which the “Inhibition of male exflagellation at 1 µM” value in assay [2] (Replicate 1) is recorded as 1.9; in assay [2] (Replicate 2) it was 0. Besides, the “Exflagellation @ 1 uM (% of DMSO) 1” value in assay [2] (1 uM, replicate 1) is reported as 1.90 % of DMSO. Also, the “Exflagellation @ 1 uM (% of DMSO) 2” value in assay [2] (1 uM, replicate 2) is 0.00 % of DMSO. The IC50 – broadly, the point on the concentration scale where inhibition reaches its midpoint – in assay [3] is 11300 nM; in assay [4], more than 51200 nM; in the assay with HeLa cells it was more than 32000 nM; in assay [5] it was 29600 nM.

As for `CN(C)c1ccc2nc3ccc(=[N+](C)C)cc-3sc2c1` [MB, methylene blue], the “Inhibition of male exflagellation at 1 µM” value in assay [6] (Replicate 3) was 5.8; in assay [6] (Replicate 4) it was 7.7; in assay [2] (Replicate 1), 2.985; in assay [2] (Replicate 2), 1.163. Besides, the Luminescence counts in assay [7] (48 h, hematocrit 0.625%) was 88 RLU and 72 RLU; in assay [7] (48 h, hematocrit 2.5%), 208 RLU and 224 RLU; in assay [7] (72 h, hematocrit 0.625%) it was 64 RLU and 56 RLU; in assay [7] (72 h, hematocrit 1.25%), 48 RLU and 56 RLU; in assay [7] (72 h, hematocrit 2.5%) it was 80 RLU and 88 RLU.
